In US10794932B2, “Biosensor for the detection of a biological target, and method for manufacturing the same” (The Governing Council of The University of Toronto, priority 2016, dated 2020):
Several values for one entry are separate records, joined by “and”; a condition that tells them apart may be missing. Equal values may be shown once.

Key:
TLR2 = biological target: T1, TLR2 (Mus musculus, UniProt Q9QUN7); assay: TLR multiplex sensor, EIS film resistance before/after exposure (Example 5), TLR2 sensor; format: binding; conditions: exposure 20 minutes
T1 sequence (Q9QUN7 25-587): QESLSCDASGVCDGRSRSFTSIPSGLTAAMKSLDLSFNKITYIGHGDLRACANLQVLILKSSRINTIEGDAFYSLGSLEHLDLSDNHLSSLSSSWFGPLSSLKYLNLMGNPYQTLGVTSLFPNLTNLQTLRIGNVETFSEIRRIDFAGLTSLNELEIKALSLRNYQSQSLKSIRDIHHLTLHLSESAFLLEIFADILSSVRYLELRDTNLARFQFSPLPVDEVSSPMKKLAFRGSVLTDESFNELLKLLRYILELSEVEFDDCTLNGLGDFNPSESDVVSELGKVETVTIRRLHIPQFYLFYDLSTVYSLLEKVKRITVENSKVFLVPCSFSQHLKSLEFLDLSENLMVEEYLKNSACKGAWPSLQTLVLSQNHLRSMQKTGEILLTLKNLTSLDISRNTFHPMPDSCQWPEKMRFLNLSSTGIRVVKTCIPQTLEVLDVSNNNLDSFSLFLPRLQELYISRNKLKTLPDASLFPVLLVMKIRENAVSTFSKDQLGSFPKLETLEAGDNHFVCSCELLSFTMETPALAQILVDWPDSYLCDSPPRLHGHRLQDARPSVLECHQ
Protocol: For each multiplex TLR sensor, 5 separate gold electrodes were used for binding TLR 1 to 5. The 5 modified electrodes/sensors were exposed to the analyte solution and evaluated one by one using potentiostats and electrochemical cells.
The preparation of each TLR biosensor was evaluated using EIS. It is understood that cyclic voltammetry as well as electrochemical impedance microscopy can also be used for monitoring the modification. […] Ethanolamine was then applied to deactivate unreacted LPA. Due to dissociation of unspecific absorbed TLR, the Rct dropped slightly. Experimental curves were evaluated using a model to obtain the Rct values, which can be seen at FIG. 9. Measurements from at least triplicated samples prepared were used to obtain statistic information.
The TLR1 sensor was exposed to an E. coli K12 whole-cell buffer solution for 20 minutes. The sensor was then removed, washed thoroughly and characterized in the electrochemical cell measuring the Rct again. The difference in Rct before and after exposure is the response triggered by the target. The same protocol was carried out for all remaining TLRs (TLRs 2-5) to obtain one set of pattern for E. coli K12 (FIGS. 10b to 10e). Multiple sets were investigated for statistical relevance. […]

rmTLR2 = assay: Label-free TLR2 sensor, EIS detection of Pam3CSK4 (Example 7); format: binding, mouse; conditions: for delta Rct %: 20 minutes; for Rct: before immersion 7784
Protocol: TLR sensors were prepared using fresh, cleaned gold electrodes. The electrodes were immersed in a 2 mM 1-lipoic acid n-hydroxysuccinimide ester (LPA) ethanol solution for 48 hours at 277 K. The electrodes were then rinsed thoroughly using absolute ethanol and blown dry under nitrogen before incubation in 200 μg/ml rmTLR1, 200 μg/ml rmTLR2 and 200 μg/ml ‘rmTLR1 and 2’ mixture for 72 hours at 277 K. The rmTLR1 and 2 mixture was prepared by mixing 200 μg/ml rmTLR1 and 200 μg/ml rmTLR2 with a volume ratio of 1:1. The final concentration of each component was 100 μg/ml and the total concentration of the combined TLR protein content was 200 μg/ml. Following the supplier's recommended conditions, all TLRs were prepared in PBS buffer (pH˜7.4). The electrodes were rinsed with an excess volume of Milli-Q water and blown dry under nitrogen. An ethanolamine-tris buffer solution was prepared by dissolving 1.2 g of ethanolamine and 0.121 g of Tris base in 20 mL of water, the pH was adjusted to 8.4 using hydrochloric acid. TLR-immobilized electrodes were incubated in the ethanolamine solution for one hour at room temperature in order to block any remaining unreacted LPA amine sites. The fabricated sensors with immobilized, standalone rmTLR3, rmTLR4/MD-2 and rmTLR5, used for the selectivity test, were prepared using the same protocol described above.
Pam3CSK4 was dissolved in 10 mM HEPES aqueous buffer at pH˜7.4. The blocked rmTLR biosensors were incubated in Pam3CSK4 at various concentrations for 20 minutes. The electrodes were always washed thoroughly with same HEPES buffer (pH˜7.4) after the incubation.
All electrochemical measurements were carried out using a cell with a three-electrode configuration in an enclosed Faraday cage. CV and EIS measurements were completed using a CHI-660b potentiostat (CH Instruments, Austin, Tex.). rmTLR-modified gold electrodes and platinum (Pt) wire were used as the working electrode and the counter electrode, respectively. A reference electrode (Ag/AgCl/3.0M KCl) and a salt bridge, filled with an agar and 1M KNO3 aqueous solution, were inserted to minimize the diffusion of chloride ions into the electrolyte solution. The agar solution was prepared by dissolving 2.0 grams of agar and 10.1 g KNOB in 100 mL of water. The CV and EIS electrolyte was made in a 10 mM HEPES aqueous buffer at pH˜7.4, which consisted of a 5 mM K4Fe(CN)6/5 mM K3Fe(CN)6 as a redox couple with 1M of NaClO4 as the supporting electrolyte. For consistency, the electrochemical measurements were carried out with open-circuit potentials. EIS experiments were conducted in the frequency range of 100,000 to 0.1 Hz with an amplitude of 5 mV. The experimental EIS curves were evaluated to determine the film resistance using ZSimpWin 2.0 software.

Pam3CSK4
delta Rct % (TLR2): 35%
limit of detection (rmTLR2): 10 µM
delta Rct % (rmTLR2; 5 μM): not significant
delta Rct % (rmTLR2; 10 μM): 32±6% and ~30%
delta Rct % (rmTLR2; 25 μM): 42±18%
delta Rct % (rmTLR2; 50 μM): 80±32%
Rct (rmTLR2; after 5 μM): 7355 Ω · cm^2
Rct (rmTLR2; after 10 μM): 9446 Ω · cm^2
Rct (rmTLR2; after 25 μM): 12770 Ω · cm^2
Rct (rmTLR2; after 50 μM): 17610 Ω · cm^2
